Assay results reported in patent US8247556B2, “Method for preparing 6-substituted-7-aza-indoles” (Amgen Inc., priority 2005, dated 2012).
pIC50: −log10 of the molar value.

Legend:
CYP 2D6 = biological target: T1, CYP 2D6 (Homo sapiens, UniProt P10635); assay: Human Liver Microsome CYP 2D6 Inhibition; assay type: in vitro ADME; details: human liver microsomes, bufuralol substrate; read-out: inhibited CYP2D6 microsomes, IC50
T1 construct: followed by 555.6 ml of 20 mg/mL HLM (BD Gentest); tissue BD Gentest; host or cells: human liver microsomes
T1 sequence (P10635 whole entry): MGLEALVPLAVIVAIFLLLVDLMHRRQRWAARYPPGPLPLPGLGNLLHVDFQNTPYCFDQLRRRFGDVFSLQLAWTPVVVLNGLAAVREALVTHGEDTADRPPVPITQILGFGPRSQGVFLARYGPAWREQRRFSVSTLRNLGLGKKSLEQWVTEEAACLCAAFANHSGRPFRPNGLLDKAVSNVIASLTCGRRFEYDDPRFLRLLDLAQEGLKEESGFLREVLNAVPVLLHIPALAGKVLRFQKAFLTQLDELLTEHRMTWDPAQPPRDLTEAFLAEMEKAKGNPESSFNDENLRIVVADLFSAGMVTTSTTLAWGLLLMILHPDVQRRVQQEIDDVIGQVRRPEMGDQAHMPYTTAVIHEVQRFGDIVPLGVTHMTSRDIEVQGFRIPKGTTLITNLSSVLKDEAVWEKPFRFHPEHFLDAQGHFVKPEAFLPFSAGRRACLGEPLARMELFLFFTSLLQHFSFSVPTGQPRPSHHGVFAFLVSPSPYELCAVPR
Method: Determining the IC-50 for Human Liver Microsome CYP 2D6 Inhibition
Postassium Phosphate Buffer pH 7.4 (39.333 mL) is chilled in an ice bath and added to a 50 ml plastic tube. A 3.2 mM bufuralol solution is prepared. 111.1 ul of 3.2 mM bufuralol is added to the buffer followed by 555.6 ml of 20 mg/mL HLM (BD Gentest). The incubation mixture was gently inverted and equilibrated at 37° C. for 5 min. A stock inhibitor solution is prepared, such as in DMSO. Incubation mixture (801 ul) is added into 96-well, 1.2 mL plastic tubes. Inhibitor is added at various concentrations (e.g. 30 μM to […]). The tubes are sealed and mix by inverting 5 times gently. The incubation mixture containing inhibitor (270 μL) is added by aliquot into wells of a 1 mL, 96-well block (duplicate). The block is placed into a 37° C. water bath and equilibrated for 3 minutes. 10 mM NADPH (30 ml) is added to all samples. After 5 min, the reactions are stopped by adding 300 ml of Quench Solution [0.1% TFA in CH3CN]. 1′-OH-bufuralol-d9 (750 ng/mL 30 μL) is added, the block is gently vortexed then centrifuged at 3000 rpm for 10 min at 4° C. 50 μL of supernatant from all samples is added by aliquot into a shorter, 96-well block. The aliquoted supernatants are pooled with other assay(s) and HPLC Grade Water (50 μL) is added to all samples. After covering and shaking by vortex gently for 2 minutes, the solutions were analyzed by LC-MS (API 3000, 5% MeOH w/0.1% AcOH to 95% MeOH w/0.1% AcOH). 500 nM quinidine is used as a control.

[1] = system: VEGF-stimulated HUVEC proliferation (Human Umbilical Vein Endothelial cells); assay: HUVEC Proliferation Assay; assay type: cell-based; details: VEGF 50 ng/mL, 72 h, CyQuant fluorescent dye, read-out: inhibited VEGF-stimulated HUVEC proliferation at a level
Method: Human Umbilical Vein Endothelial cells are purchased from Clonetics, Inc., as cryopreserved cells harvested from a pool of donors. These cells, at passage 1, are thawed and expanded in EBM-2 complete medium, until passage 2 or 3. The cells are trypsinized, washed in DMEM+10% FBS+antibiotics, and spun at 1000 rpm for 10 min. Prior to centrifugation of the cells, a small amount is collected for a cell count. After centrifugation, the medium is discarded, and the cells are resuspended in the appropriate volume of DMEM+10% FBS+antibiotics to achieve a concentration of 3×10^5 cells/mL. Another cell count is performed to confirm the cell concentration. The cells are diluted to 3×10^4 cells/mL in DMEM+10% FBS+antibiotics, and 100 μL of cells are added to a 96-well plate. The cells are incubated at 37° C. for 22 h.
Prior to the completion of the incubation period, compound dilutions are prepared. Five-point, five-fold serial dilutions are prepared in DMSO, at concentrations 400-fold greater than the final concentrations desired. 2.5 μL of each compound dilution are diluted further in a total of 1 mL DMEM+10% FBS+antibiotics (400× dilution). Medium containing 0.25% DMSO is also prepared for the 0 μM compound sample. At the 22 h time point, the medium is removed from the cells, and 100 μL of each compound dilution is added. The cells are incubated at 37° C. for 2-3 h.
During the compound pre-incubation period, the growth factors are diluted to the appropriate concentrations. Solutions of DMEM+10% FBS+antibiotics, containing either VEGF or bFGF at the following concentrations: 50, 10, 2, 0.4, 0.08, and 0 ng/mL are prepared. For the compound-treated cells, solutions of VEGF at 550 ng/mL or bFGF at 220 ng/mL for 50 ng/mL or 20 ng/mL final concentrations, respectively, are prepared since 10 μL of each will be added to the cells (110 μL final volume). At the appropriate time after adding the compounds, the growth factors are added. VEGF is added to one set of plates, while bFGF is added to another set of plates. For the growth factor control curves, the media on wells B4-G6 of plates 1 and 2 are replaced with media containing VEGF or bFGF at the varying concentrations (50-0 ng/mL). The cells are incubated at 37° C. for an additional 72 h.
At the completion of the 72 h incubation period, the medium is removed, and the cells are washed twice with PBS. After the second wash with PBS, the plates are tapped gently to remove excess PBS, and the cells are placed at −70° C. for at least 30 min. The cells are thawed and analyzed using the CyQuant fluorescent dye (Molecular Probes C-7026), following the manufacturer's recommendations. The plates are read on a Victor/Wallac 1420 workstation at 485 nm/530 nm (excitation/emission). Raw data are collected and analyzed using a 4-parameter fit equation in XLFit. IC50 values are then determined.

pIC50 (CYP 2D6)	SMILES	pIC50 [1]
< 4.70	CC1(C)CN(C(=O)CN)Cc2cc(NC(=O)c3cccnc3NCc3ccnc4[nH]ccc34)ccc21 [Example 15, N-(2-Glycyl-4,4-dimethyl-1,2,3,4-tetrahydroisoquinolin-7-yl)-2-[(1H-pyrrolo[2,3-b]pyridin-4-ylmethyl)amino]nicotinamide]	–
< 4.70	CC1(C)CCNc2cc(NC(=O)c3cccnc3NCc3c[nH]c4ncccc34)ccc21 [Example 40, N-(4,4-Dimethyl-1,2,3,4-tetrahydro-quinolin-7-yl)-2-[(1H-pyrrolo[2,3-b]pyridin-3-ylmethyl)-amino]-nicotinamide]	> 6.30
< 4.70	CC(=O)N1CCC(C)(C)c2ccc(NC(=O)c3cccnc3NCc3ccnc4[nH]ccc34)cc21 [Example 52, N-(1-Acetyl-4,4-dimethyl-1,2,3,4-tetrahydro-quinolin-7-yl)-2-[(1H-pyrrolo[2,3-b]pyridin-4-ylmethyl)-amino]-nicotinamide]	> 6.30
< 4.70	CC(=O)N1CC(C)(C)c2ccc(NC(=O)c3cccnc3NCc3ccnc4[nH]ccc34)cc21 [Example 6, N-(1-Acetyl-3,3-dimethyl-2,3-dihydro-1H-indol-6-yl)-2-[(1H-pyrrolo[2,3-b]pyridin-4-ylmethyl)amino]nicotinamide]	> 6.30
< 4.70	CC1(C)CC(=O)Nc2cc(NC(=O)c3cc(F)cnc3NCc3ccnc4[nH]ccc34)ccc21 [Example 81, N-(4,4-dimethyl-2-oxo-1,2,3,4-tetrahydro-7-quinolinyl)-5-fluoro-2-((1H-pyrrolo[2,3-b]pyridin-4-ylmethyl)amino)-3-pyridinecarboxamide]	> 6.30
< 4.70	Cc1nc2cc(NC(=O)c3cc(F)cnc3NCc3ccnc4[nH]ncc34)ccc2s1 [Example 116, 5-fluoro-N-(2-methyl-1,3-benzothiazol-5-yl)-2-((1H-pyrazolo[3,4-b]pyridin-4-ylmethyl)amino)-3-pyridinecarboxamide]	> 6.30
< 4.70	Cc1nc2cc(NC(=O)c3cccnc3NCc3ccnc4[nH]ncc34)ccc2s1 [Example 70, N-(2-Methyl-1,3-benzothiazol-5-yl)-2-((1H-pyrazolo[3,4-b]pyridin-4-ylmethyl)amino)-3-pyridinecarboxamide]	> 6.30
< 4.70	CC(=O)N1CC2(CC2)c2ccc(NC(=O)c3cccnc3NCc3ccnc4[nH]ccc34)cc21 [Example 7]	> 6.30
< 4.70	[2H]C1([2H])CC(C)(C)c2ccc(NC(=O)c3cccnc3NCc3ccnc4[nH]ccc34)cc2N1 [Example 69, N-(2,2-Dideutero-4,4-dimethyl-1,2,3,4-tetrahydro-quinolin-7-yl)-2-[(1H-pyrrolo[2,3-b]pyridin-4-ylmethyl)-amino]-nicotinamide]	> 6.30
–	CC1(C)CN(C(=O)[C@@H]2CCN2)c2cc(NC(=O)c3cccnc3NCc3ccnc4[nH]ccc34)ccc21 [Example 23, N-{1-[(2S)-Azetidin-2-ylcarbonyl]-3,3-dimethyl-2,3-dihydro-1H-indol-6-yl}-2-[(1H-pyrrolo[2,3-b]pyridin-4-ylmethyl)amino]nicotinamide]	> 6.30
–	O=C(Nc1ccc(C(O)(C(F)(F)F)C(F)(F)F)cc1)c1cccnc1NCc1ccnc2[nH]ccc12 [Example 17, 2-[(1H-Pyrrolo[2,3-b]pyridin-4-ylmethyl)amino]-N-{4-[2,2,2-trifluoro-1-hydroxy-1-(trifluoromethyl)ethyl]phenyl}nicotinamide]	> 6.30
–	Cc1ccc(NC(=O)c2cc(F)cnc2NCc2ccnc3[nH]ccc23)cc1Cl [Example 110, N-(3-chloro-4-methylphenyl)-5-fluoro-2-((1H-pyrrolo[2,3-b]pyridin-4-ylmethyl)amino)-3-pyridinecarboxamide]	> 6.30
–	CC1(C)CCNc2cc(NC(=O)c3cccnc3NCc3ccnc4c3CC(=O)N4)ccc21 [Example 73, N-(4,4-Dimethyl-1,2,3,4-tetrahydro-quinolin-7-yl)-2-[(2-oxo-2,3-dihydro-1H-pyrrolo[2,3-b]pyridin-4-ylmethyl)-amino]-nicotinamide]	> 6.30
–	O=C(Nc1ccc2ccncc2c1)c1cccnc1NCc1ccnc2[nH]ccc12 [Example 55, N-Isoquinolin-7-yl-2-[(1H-pyrrolo[2,3-b]pyridin-4-ylmethyl)-amino]-nicotinamide]	> 6.30
–	Cc1nc2cc(NC(=O)c3cc(F)cnc3NCc3ccnc4c3CCN4)ccc2s1 [Example 115, 2-((2,3-dihydro-1H-pyrrolo[2,3-b]pyridin-4-ylmethyl)amino)-5-fluoro-N-(2-methyl-1,3-benzothiazol-5-yl)-3-pyridinecarboxamide]	> 6.30
–	O=C(Nc1cccc(C(F)(F)F)c1)c1cc(F)cnc1NCc1ccnc2[nH]ncc12 [Example 122, 5-Fluoro-2-((1H-pyrazolo[3,4-b]pyridin-4-ylmethyl)amino)-N-(3-(trifluoromethyl)phenyl)-3-pyridinecarboxamide]	> 6.30
–	O=C(Nc1ccc2c(c1)NCC21CC1)c1cccnc1NCc1ccnc2[nH]ccc12 [Example 8]	> 6.30
–	Cc1nc2cc(NC(=O)c3cc(F)cnc3NCc3ccnc4[nH]ccc34)ccc2s1 [Example 77, 5-fluoro-N-(2-methyl-1,3-benzothiazol-5-yl)-2-((1H-pyrrolo[2,3-b]pyridin-4-ylmethyl)amino)-3-pyridinecarboxamide]	> 6.30
–	O=C(Nc1ccc(C(F)(F)C(F)(F)F)c(OCCN2CCCC2)c1)c1cccnc1NCc1ccnc2[nH]ccc12 [Example 63, N-[4-pentafluoroethyl-3-(2-pyrrolidin-1-yl-ethoxy)-phenyl]-2-[(1H-pyrrolo[2,3-b]pyridin-4-ylmethyl)-amino]-nicotinamide]	> 6.30
–	O=C(Nc1ccc(Cl)cc1)c1cc(F)cnc1NCc1ccnc2[nH]ccc12 [Example 91, N-(4-chlorophenyl)-5-fluoro-2-((1H-pyrrolo[2,3-b]pyridin-4-ylmethyl)amino)-3-pyridinecarboxamide]	> 6.30
–	CC1(C)CNCc2cc(NC(=O)c3cc(F)cnc3NCc3ccnc4[nH]ccc34)ccc21 [Example 101, N-(4,4-dimethyl-1,2,3,4-tetrahydro-7-isoquinolinyl)-5-fluoro-2-((1H-pyrrolo[2,3-b]pyridin-4-ylmethyl)amino)-3-pyridinecarboxamide]	> 6.30
–	O=C(Nc1cc(CCCN2CCOCC2)cc(C(F)(F)F)c1)c1cccnc1NCc1ccnc2[nH]ccc12 [Example 60, N-(3-(3-(4-morpholinyl)propyl)-5-(trifluoromethyl)phenyl)-2-((1H-pyrrolo[2,3-b]pyridin-4-ylmethyl)amino)-3-pyridinecarboxamide]	> 6.30
